Reference: patent publication US12582146B2, “Angiotensin-converting enzyme inhibitor, blood pressure-lowering agent, and beverages and food products” (priority 2019, dated 2026)

Biological target: angiotensin-converting enzyme (ACE) (UniProt P12822)
Experiment: Test of effect of inhibiting angiotensin-converting enzyme (Hippuryl-His-Leu substrate, hippuric acid measured by HPLC)
Type: biochemical
Procedure: [Test Example 1] Test of Effect of Inhibiting Angiotensin-Converting Enzyme Conducted on Compound (I)
The effect of inhibiting an angiotensin-converting enzyme was tested on the compound (I) (sample 1) as explained below.
A sample solution (sample 1), obtained by suitably dissolving in and diluting with distilled water, and distilled water respectively in an amount of 50 μL were dispensed into test tubes (10 mL). A substrate solution was dispensed respectively in an amount of 250 μL and mixed. The test tubes were preheated in a thermostatic water-tank at 37° C. for 5 minutes. The preheated test tubes were added with an ACE solution in an amount of 100 μL, agitated immediately and brought to react in the thermostatic water-tank at 37° C. for 45 minutes. After the reaction finished, 3% metaphosphate solution in an amount of 3.6 mL was added and agitated to end reaction. The inactivated solution was subjected to HPLC analysis and isolated hippuric acid was measured. Based on a hippuric acid peak area and solid amount (concentration and weighed amount) from the HPLC, an ACE inhibition rate (%) was obtained.
A substrate solution was prepared to obtain a boric acid buffering solution (pH 8.3) with 8 mM substrate (Hippuryl-His-Leu produced by PEPTIDE INSTITUTE, INC.) and 640 mM sodium chloride. An ACE solution was prepared to obtain a boric acid buffering solution with 30 mU/mL ACE (produced by Sigma-Aldrich Co. LLC).
<Liquid Chromatography Condition >
Column: Wakosil-II 5C18 HG (4.5mm I.D.×150mm produced by Wako Pure Chemical Industries, Ltd.)
• Column Temperature: 40° C. • Mobile Phase: 20 mM KH2PO4·H3PO4 (pH 3.0): Methanol (57:43, v/v) • Flow Rate: 1.0 mL/min. • Detection Wavelength: 228 nm • Feed Amount: 20 μL

Sequence of angiotensin-converting enzyme (ACE) (P12822 whole entry): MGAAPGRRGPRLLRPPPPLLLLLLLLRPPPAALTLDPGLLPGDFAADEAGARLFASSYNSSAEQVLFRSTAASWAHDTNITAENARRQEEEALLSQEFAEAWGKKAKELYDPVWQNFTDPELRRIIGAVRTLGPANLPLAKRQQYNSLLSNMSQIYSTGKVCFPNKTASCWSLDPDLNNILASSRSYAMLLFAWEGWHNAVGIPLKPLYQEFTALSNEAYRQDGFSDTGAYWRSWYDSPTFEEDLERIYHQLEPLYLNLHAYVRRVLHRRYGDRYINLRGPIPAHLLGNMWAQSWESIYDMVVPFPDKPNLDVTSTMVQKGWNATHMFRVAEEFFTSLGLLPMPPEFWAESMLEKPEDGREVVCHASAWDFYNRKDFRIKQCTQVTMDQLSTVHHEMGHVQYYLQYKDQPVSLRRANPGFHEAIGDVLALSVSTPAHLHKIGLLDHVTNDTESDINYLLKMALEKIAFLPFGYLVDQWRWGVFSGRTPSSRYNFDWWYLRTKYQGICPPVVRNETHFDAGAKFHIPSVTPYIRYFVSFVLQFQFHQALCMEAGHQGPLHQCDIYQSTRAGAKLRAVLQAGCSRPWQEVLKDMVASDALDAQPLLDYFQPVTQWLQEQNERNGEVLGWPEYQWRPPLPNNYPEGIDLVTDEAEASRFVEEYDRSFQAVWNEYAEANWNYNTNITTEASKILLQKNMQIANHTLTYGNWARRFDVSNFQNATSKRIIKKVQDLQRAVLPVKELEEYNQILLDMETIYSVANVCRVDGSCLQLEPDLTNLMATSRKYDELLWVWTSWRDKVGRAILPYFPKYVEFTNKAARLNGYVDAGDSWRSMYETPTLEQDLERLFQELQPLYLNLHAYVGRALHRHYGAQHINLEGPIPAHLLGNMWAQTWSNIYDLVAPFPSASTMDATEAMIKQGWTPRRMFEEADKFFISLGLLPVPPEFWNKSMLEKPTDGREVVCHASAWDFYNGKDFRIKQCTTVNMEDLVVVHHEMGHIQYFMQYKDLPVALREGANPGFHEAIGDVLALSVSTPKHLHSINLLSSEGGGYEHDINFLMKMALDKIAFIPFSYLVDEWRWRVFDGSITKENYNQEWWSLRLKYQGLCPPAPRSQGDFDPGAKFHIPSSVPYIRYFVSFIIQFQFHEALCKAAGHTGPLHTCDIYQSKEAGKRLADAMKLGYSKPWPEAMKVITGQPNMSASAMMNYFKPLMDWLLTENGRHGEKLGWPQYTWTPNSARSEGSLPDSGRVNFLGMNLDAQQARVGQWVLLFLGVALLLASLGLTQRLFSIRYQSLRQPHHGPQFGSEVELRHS

## COc1cc(CCC(=O)O)ccc1O [compound (I), 3-(4-hydroxy-3-methoxyphenyl)propionic acid]
37° C., 45 minutes reaction, read-out: IC50 (concentration of the sample in the reaction solution exhibiting an ACE inhibition rate of 50%) (converted)
  IC50: 10.9 mM
Sample concentration 943.25 μg/mL
  ACE Inhibition Rate: 21.6%
Sample concentration 1886.50 μg/mL
  ACE Inhibition Rate: 41.1%
Sample concentration 3773.00 μg/mL
  ACE Inhibition Rate: 73.2%
